Data as given in patent US4002754A, “Substituted piperazinyliminorifamycins” (Gruppo Lepetit S.p.A., priority 1975, dated 1977).
≈ marks a conversion by molar mass, not a printed value.

Legend:
[1] = tested on: Mycobacterium tuberculosis H37 Rv; assay: minimal inhibitory concentration (antimicrobial activity); assay type: cell-based; details: H37RV, read-out: minimal inhibitory concentration
Text: (§1) The unexpected biological characteristics of the novel rifamycins have been evidenced by considering the survival time after a daily administration of rifampicin and a once-a-week administration of the same dose level per os of 3-[4-(2-propenyl)-1-piperazinyl]iminorifamycin SV (hereinafter referred to as "propenyl derivative") to mice infected with Mycobacterium tuberculosis H37 Rv. […] For instance, the value of the minimal inhibitory concentration of propenyl derivative against Mycobacterium tuberculosis H37 Rv is 0.02 μg/ml while that of rifampicin is 0.5 μg/ml.

[2] = tested on: Mycobacterium tuberculosis H37 Rv; assay: survival time of mice infected with Mycobacterium tuberculosis H37 Rv; assay type: in vivo; details: once-a-week per os vs daily rifampicin at same dose level; total amount about 1/6
Text: as §1

[3] = in vivo; details: mouse
[4] = tested on: Staphylococcus aureus; assay: experimental Staphylococcus aureus infection in mice; assay type: in vivo; details: po
Experimental: In fact, propynyl derivative (i.e. 3-[4-(2-propynyl)-1-piperazinyl]iminomethylrifamycin SV) in representative experiments has shown an ED50 value of 0.20 mg/kg p.o. The toxicity is very low, the LD 50 value in mice being higher than 2000 mg/kg p.o. The new compounds are suitably administered in usual pharmaceutical combinations with conventional carriers.

[5] = toxicity (LD50) in mice; details: in words

Row | Compound | MIC [1] [µg/mL] | survival time [2] | LD50 ([3]; ip) [mg/kg] | LD50 ([3]; po) [mg/kg] | ED50 [4] [mg/kg] | toxicity [5]
1 | C=CCN1CCN(N=Cc2c3c(O)c4c(O)c(C)c5c(c4c2O)C(=O)C(C)(OC=CC(OC)C(C)C(OC(C)=O)C(C)C(O)C(C)C(O)C(C)C=CC=C(C)C(=O)N3)O5)CC1 (stereo not shown) [propenyl derivative, 3-[4-(2-Propenyl)-1-piperazinyl]iminomethylrifamycin SV] | 0.02 (≈ 0.0236 µM) | about the same survival time | ~700 | ~1500 |  | 
2 | C#CCN1CCN(N=Cc2c3c(O)c4c(O)c(C)c5c(c4c2O)C(=O)C(C)(OC=CC(OC)C(C)C(OC(C)=O)C(C)C(O)C(C)C(O)C(C)C=CC=C(C)C(=O)N3)O5)CC1 (stereo not shown) [propynyl derivative, 3-[4-(2-Propynyl)-1-piperazinyl]iminomethylrifamycin SV] |  |  |  | > 2000 | 0.2 | very low
